Experimental data published in ChEMBL document CHEMBL1201862, “PubChem BioAssay data set” (2004).
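Where inhibition never reached the appropriate level, the endpoint shown equals the highest concentration tested. Otherwise, values were interpolated linearly from a five-concentration, 48-hour dose response in 96-well plates. GI50 = concentration required for 50% inhibition of growth.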 Active and inactive are the calls of the source. Rule as the data show it: active = GI50 up to about 1.1 µM and inactive = higher.

Tests used:
Assay in all cases: NCI-60 cell line screen, 48 h
COLO 205 = tested on: COLO 205
LOX IMVI = tested on: LOX IMVI
SNB-75 = tested on: SNB-75
RXF 393 = tested on: RXF 393
A498 = tested on: A498
EKVX = tested on: EKVX
SF-539 = tested on: SF-539
UO-31 = tested on: UO-31
HOP-62 = tested on: HOP-62
CAKI-1 = tested on: CAKI-1
SF-268 = tested on: SF-268
NCI-H522 = tested on: NCI-H522
MDA-MB-231 = tested on: MDA-MB-231
PC-3 = tested on: PC-3
MDA-MB-435 = tested on: MDA-MB-435
UACC-62 = tested on: UACC-62
SW-620 = tested on: SW-620
HOP-92 = tested on: HOP-92
NCI-H23 = tested on: NCI-H23
NCI/ADR-RES = tested on: NCI/ADR-RES

| SMILES | GI50 (COLO 205) | GI50 (LOX IMVI) | GI50 (SNB-75) | GI50 (RXF 393) | GI50 (A498) | GI50 (EKVX) | GI50 (SF-539) | GI50 (UO-31) | GI50 (HOP-62) | GI50 (CAKI-1) | GI50 (SF-268) | GI50 (NCI-H522) | GI50 (MDA-MB-231) | GI50 (PC-3) | GI50 (MDA-MB-435) | GI50 (UACC-62) | GI50 (SW-620) | GI50 (HOP-92) | GI50 (NCI-H23) | GI50 (NCI/ADR-RES) |
| --- | --- | --- | --- | --- | --- | --- | --- | --- | --- | --- | --- | --- | --- | --- | --- | --- | --- | --- | --- | --- |
| COC1/C=C\C=C(/C)C(=O)Nc2cc3nc4ccc(Br)cc4oc-3c(c2=O)CC(C)CC(OC)C(O)C(C)/C=C(\C)C1OC(N)=O (stereo unspecified) | 0.01 µM (active) | 0.0565 µM (active) | 7.08 µM (inactive) | < 0.0112 µM (active) | 13.5 µM (inactive) | 3.17 µM (inactive) | 0.44 µM (active) | 0.12 µM (active) | 4.1 µM (inactive) | 0.292 µM (active) | 0.499 µM (active) | 0.01 µM (active) | 0.00849 µM (active) | 0.931 µM (active) | 0.00389 µM (active) | 0.0391 µM (active) | 0.01 µM (active) | 0.0134 µM (active) |  |  |
| CC(Oc1ccc2c(-c3ccc(Cl)cc3)cc(=O)oc2c1)C(=O)O (stereo unspecified) | > 100 µM (inactive) | > 100 µM (inactive) | > 100 µM (inactive) | > 100 µM (inactive) | > 100 µM (inactive) | > 100 µM (inactive) | > 100 µM (inactive) | > 100 µM (inactive) | > 100 µM (inactive) | > 100 µM (inactive) | > 100 µM (inactive) | > 100 µM (inactive) |  |  |  | > 100 µM (inactive) | > 100 µM (inactive) | > 100 µM (inactive) | > 100 µM (inactive) |  |
| COc1ccc(Cn2nc(OCc3ccccc3)c3cc([N+](=O)[O-])ccc32)cc1 |  | > 100 µM (inactive) | > 100 µM (inactive) | > 100 µM (inactive) | > 100 µM (inactive) |  | > 100 µM (inactive) |  | > 100 µM (inactive) |  | > 100 µM (inactive) | > 100 µM (inactive) | > 100 µM (inactive) |  | > 100 µM (inactive) | > 100 µM (inactive) | > 100 µM (inactive) |  | > 100 µM (inactive) | > 100 µM (inactive) |
| CCN(CC)CCNc1ccc2ncn3c4cc(O)ccc4c(=O)c1c23 | 2.41 µM (inactive) | 1.87 µM (inactive) | 4.39 µM (inactive) | 0.536 µM (active) | 4.86 µM (inactive) | 8.77 µM (inactive) | 3.25 µM (inactive) | 5.71 µM (inactive) | 4.85 µM (inactive) | 3.05 µM (inactive) | 2.09 µM (inactive) | 1.22 µM (inactive) |  |  |  | 5.65 µM (inactive) | 1.88 µM (inactive) | 0.519 µM (active) | 3.55 µM (inactive) |  |
| COc1cc(C2c3cc4c(cc3[C@@H](Nc3ccccc3)C3COC[C@H]23)OCO4)cc(OC)c1O (stereo partly specified) | 3.28 µM (inactive) |  | 2.23 µM (inactive) |  |  | 15.4 µM (inactive) | 1.26 µM (inactive) | 1.15 µM (inactive) | 1.48 µM (inactive) |  | 3.03 µM (inactive) | 2.2 µM (inactive) | 1.64 µM (inactive) | 3.33 µM (inactive) | 7.13 µM (inactive) |  | 1.81 µM (inactive) |  |  | 10.9 µM (inactive) |
| O=C(O)COc1ccc(C(=O)/C(SS/C(C(=O)c2ccc(OCC(=O)O)c(Cl)c2Cl)=C2\C=C(c3ccc(F)cc3)SS2)=C2/C=C(c3ccc(F)cc3)SS2)c(Cl)c1Cl | 6.76 µM (inactive) | 3.12 µM (inactive) | 17.2 µM (inactive) |  | 31.7 µM (inactive) | 38.6 µM (inactive) | 9.02 µM (inactive) | 15.7 µM (inactive) | 33.9 µM (inactive) | 33.5 µM (inactive) | 6.9 µM (inactive) | 2.38 µM (inactive) |  |  | 49.4 µM (inactive) | 8.24 µM (inactive) | 15.6 µM (inactive) | 3.75 µM (inactive) | 13.2 µM (inactive) |  |
| Cc1ccc(S(=O)(=O)NC(=O)NC(C(=O)O)C(C)C)cc1 (stereo unspecified) | > 100 µM (inactive) | > 100 µM (inactive) | > 100 µM (inactive) | > 100 µM (inactive) |  |  | > 100 µM (inactive) | > 100 µM (inactive) | > 100 µM (inactive) |  | > 100 µM (inactive) | > 100 µM (inactive) | > 100 µM (inactive) | > 100 µM (inactive) |  | > 100 µM (inactive) | > 100 µM (inactive) | > 100 µM (inactive) | > 100 µM (inactive) | > 100 µM (inactive) |
| C=C1C(=O)C23C(CC(OC(C)=O)C1[C@@H]2OC(C)=O)C1(C)C(OC(C)=O)CCC(C)(C)C1C[C@@H]3OC(C)=O (stereo partly specified) |  | 1.24 µM (inactive) | 1.52 µM (inactive) | 0.237 µM (active) | 1.95 µM (inactive) | 3.31 µM (inactive) | 1.76 µM (inactive) | 1.8 µM (inactive) | 3.14 µM (inactive) | 0.653 µM (active) | 1.56 µM (inactive) | 0.453 µM (active) |  |  |  | 1.9 µM (inactive) | 1.26 µM (inactive) | 0.167 µM (active) |  |  |
| COC(=O)[C@@H]1C=C[C@@H](C#N)n2c(=O)n(-c3ccccc3)c(=O)n21 | 40.3 µM (inactive) | 10.6 µM (inactive) | 26.7 µM (inactive) |  | 41.1 µM (inactive) | 35.5 µM (inactive) | 20.8 µM (inactive) | 41.9 µM (inactive) | 13.3 µM (inactive) | 98.9 µM (inactive) | 27.9 µM (inactive) | 14.8 µM (inactive) | 19.7 µM (inactive) |  | 42 µM (inactive) | 36.6 µM (inactive) | 41.9 µM (inactive) | 45.4 µM (inactive) | 36.9 µM (inactive) | 26.4 µM (inactive) |
